Reference: PubChem BioAssay AID2060488 (Molecular Pharmacology Branch, DTP, NCI, 2025)

Tested on: 966289-007-R4-J1-PDC complex spheroid viability
Test: Anticancer human tumor 966289-007-R4-J1-PDC patient-derived pancreatic adenocarcinoma cell line growth inhibition [GQUAD]
Conditions: for IC50: curve of first compound; for viability, T/C: stronger effect = lower value
Summary of the method: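 Multi-cell-type spheroids of tumor cells with HUVEC and mesenchymal stem cells, treated with drug combinations. Concentrations descend in half-log steps from near clinical Cmax, or from 10 microM where Cmax is unknown; viability read-out.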

[1] = second compound 0.0316 µM, first compound 0.0316 µM
[2] = second compound 0.0316 µM, first compound 0.1 µM
[3] = second compound 0.0316 µM, first compound 0.316 µM
[4] = second compound 0.0316 µM, first compound 1 µM
[5] = second compound 0.0316 µM, first compound 3.16 µM
[6] = second compound 0.0316 µM, first compound 10 µM
[7] = second compound 0.1 µM, first compound 0.0316 µM
[8] = second compound 0.1 µM, first compound 0.1 µM
[9] = second compound 0.1 µM, first compound 0.316 µM
[10] = second compound 0.1 µM, first compound 1 µM
[11] = second compound 0.1 µM, first compound 3.16 µM
[12] = second compound 0.1 µM, first compound 10 µM
[13] = second compound 0.316 µM, first compound 0.0316 µM
[14] = second compound 0.316 µM, first compound 0.1 µM
[15] = second compound 0.316 µM, first compound 0.316 µM
[16] = second compound 0.316 µM, first compound 1 µM
[17] = second compound 0.316 µM, first compound 3.16 µM
[18] = second compound 0.316 µM, first compound 10 µM
[19] = second compound 1 µM, first compound 0.0316 µM
[20] = second compound 1 µM, first compound 0.1 µM
[21] = second compound 1 µM, first compound 0.316 µM
[22] = second compound 1 µM, first compound 1 µM
[23] = second compound 1 µM, first compound 3.16 µM
[24] = second compound 1 µM, first compound 10 µM
[25] = second compound 3.16 µM, first compound 0.0316 µM
[26] = second compound 3.16 µM, first compound 0.1 µM
[27] = second compound 3.16 µM, first compound 0.316 µM
[28] = second compound 3.16 µM, first compound 1 µM
[29] = second compound 3.16 µM, first compound 3.16 µM
[30] = second compound 3.16 µM, first compound 10 µM
[31] = second compound 10 µM, first compound 0.0316 µM
[32] = second compound 10 µM, first compound 0.1 µM
[33] = second compound 10 µM, first compound 0.316 µM
[34] = second compound 10 µM, first compound 1 µM
[35] = second compound 10 µM, first compound 3.16 µM
[36] = second compound 10 µM, first compound 10 µM
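Also: spheroids exposed to the agents for seven days before readout.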
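For viability, T/C in this document: percent viability relative to DMSO vehicle control wells taken as 100%.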

`C#Cc1c(F)ccc2cc(O)cc(-c3ncc4c(N5CC6CCC(C5)N6)nc(OCC56CCCN5CC(F)C6)nc4c3F)c12` (stereo unspecified) + Cc1cnc(CNC(=O)c2c(=O)c3ccc(N4CCCN(C)CC4)nc3n3c2sc2ccccc23)cn1 was tested, and the IC50 (second compound 0.0316 µM) was over 10000 nM, the IC50 (second compound 0.1 µM) was under 31.6 nM and the IC50 (second compound 0.316 µM) was under 31.6 nM. The IC50 (second compound 1 µM) was under 31.6 nM, the IC50 (second compound 3.16 µM) was under 31.6 nM and the IC50 (second compound 10 µM) was under 31.6 nM. It also gave a viability, T/C [1] of 114%, a viability, T/C [2] of 114% and a viability, T/C [3] of 111%. For the same compound, the viability, T/C [4] was 116%, the viability, T/C [5] was 122% and the viability, T/C [6] was 114%. It also gave a viability, T/C [7] of 38.4%, a viability, T/C [8] of 31.4% and a viability, T/C [9] of 34.2%. For the same compound, the viability, T/C [10] was 31.9%, the viability, T/C [11] was 40.5% and the viability, T/C [12] was 33.9%. The viability, T/C [13] was 10.9%, the viability, T/C [14] was 11.8% and the viability, T/C [15] was 13.7%. For the same compound, the viability, T/C [16] was 12.7%, the viability, T/C [17] was 11% and the viability, T/C [18] was 7.05%. It also gave a viability, T/C [19] of 6%, a viability, T/C [20] of 4.8% and a viability, T/C [21] of 5.85%. It also gave a viability, T/C [22] of 6.1%, a viability, T/C [23] of 6.94% and a viability, T/C [24] of 2.87%. It also gave a viability, T/C [25] of 4.4%, a viability, T/C [26] of 5.02% and a viability, T/C [27] of 5.21%. The viability, T/C [28] was 4.53%, the viability, T/C [29] was 4.58% and the viability, T/C [30] was 0.22%. It also gave a viability, T/C [31] of 0.1%, a viability, T/C [32] of 0.14% and a viability, T/C [33] of 0.14%. The viability, T/C [34] was 0.28%, the viability, T/C [35] was 0.16% and the viability, T/C [36] was 0.11%.
Work on `CC(=O)O[C@H]1C(=O)[C@@]2(C)[C@H]([C@H](OC(=O)c3ccccc3)[C@]3(O)C[C@H](OC(=O)[C@H](O)[C@@H](NC(=O)c4ccccc4)c4ccccc4)C(C)=C1C3(C)C)[C@]1(OC(C)=O)CO[C@@H]1C[C@@H]2O` + Cc1cnc(CNC(=O)c2c(=O)c3ccc(N4CCCN(C)CC4)nc3n3c2sc2ccccc23)cn1 yielded an IC50 (second compound 0.0316 µM) of under 31.6 nM, an IC50 (second compound 0.1 µM) of under 31.6 nM and an IC50 (second compound 0.316 µM) of under 31.6 nM. For the same compound, the IC50 (second compound 1 µM) was under 31.6 nM, the IC50 (second compound 3.16 µM) was under 31.6 nM and the IC50 (second compound 10 µM) was under 31.6 nM. For the same compound, the viability, T/C [1] was 3.55%, the viability, T/C [2] was 2.41% and the viability, T/C [3] was 2.38%. It also gave a viability, T/C [4] of 2.61%, a viability, T/C [5] of 4.35% and a viability, T/C [6] of 6.47%. It also gave a viability, T/C [7] of 3.6%, a viability, T/C [8] of 2.87% and a viability, T/C [9] of 3.34%. The viability, T/C [10] was 3.44%, the viability, T/C [11] was 4.23% and the viability, T/C [12] was 5.96%. It also gave a viability, T/C [13] of 6.14%, a viability, T/C [14] of 5.32% and a viability, T/C [15] of 4.53%. For the same compound, the viability, T/C [16] was 4.82%, the viability, T/C [17] was 6.03% and the viability, T/C [18] was 6.11%. The viability, T/C [19] was 4.85%, the viability, T/C [20] was 3.94% and the viability, T/C [21] was 4.08%. It also gave a viability, T/C [22] of 3.75%, a viability, T/C [23] of 5.24% and a viability, T/C [24] of 5.33%. For the same compound, the viability, T/C [25] was 3.56%, the viability, T/C [26] was 2.87% and the viability, T/C [27] was 3.36%. It also gave a viability, T/C [28] of 2.75%, a viability, T/C [29] of 3.86% and a viability, T/C [30] of 3.56%. For the same compound, the viability, T/C [31] was 0.08%, the viability, T/C [32] was 0.11% and the viability, T/C [33] was 0.1%. It also gave a viability, T/C [34] of 0.09%, a viability, T/C [35] of 0.1% and a viability, T/C [36] of 0.11%.
Work on `CCCS(=O)(=O)Nc1ccc(F)c(C(=O)c2c[nH]c3ncc(-c4ccc(Cl)cc4)cc23)c1F` + Cc1cnc(CNC(=O)c2c(=O)c3ccc(N4CCCN(C)CC4)nc3n3c2sc2ccccc23)cn1 yielded an IC50 (second compound 0.0316 µM) of 6500 nM, an IC50 (second compound 0.1 µM) of under 31.6 nM and an IC50 (second compound 0.316 µM) of under 31.6 nM. The IC50 (second compound 1 µM) was under 31.6 nM, the IC50 (second compound 3.16 µM) was under 31.6 nM and the IC50 (second compound 10 µM) was under 31.6 nM. It also gave a viability, T/C [1] of 117%, a viability, T/C [2] of 109% and a viability, T/C [3] of 111%. For the same compound, the viability, T/C [4] was 99.9%, the viability, T/C [5] was 89.8% and the viability, T/C [6] was 27.1%. For the same compound, the viability, T/C [7] was 34.8%, the viability, T/C [8] was 34.5% and the viability, T/C [9] was 32%. It also gave a viability, T/C [10] of 26.7%, a viability, T/C [11] of 25.5% and a viability, T/C [12] of 16.1%. It also gave a viability, T/C [13] of 11.4%, a viability, T/C [14] of 10.7% and a viability, T/C [15] of 8.91%. For the same compound, the viability, T/C [16] was 8.64%, the viability, T/C [17] was 9.45% and the viability, T/C [18] was 8.17%. It also gave a viability, T/C [19] of 6.02%, a viability, T/C [20] of 7.02% and a viability, T/C [21] of 5.64%. The viability, T/C [22] was 4.34%, the viability, T/C [23] was 4.77% and the viability, T/C [24] was 3.64%. It also gave a viability, T/C [25] of 4.08%, a viability, T/C [26] of 4.51% and a viability, T/C [27] of 4.86%. The viability, T/C [28] was 3.92%, the viability, T/C [29] was 3.36% and the viability, T/C [30] was 1.47%. For the same compound, the viability, T/C [31] was 0.08%, the viability, T/C [32] was 0.11% and the viability, T/C [33] was 0.13%. It also gave a viability, T/C [34] of 0.26%, a viability, T/C [35] of 0.86% and a viability, T/C [36] of 0.14%.
